Laboratory results from the supplement of paper PMC11061612.

Experiments:
Assay in all cases: combination Emax (second highest fraction inhibited in the dose matrix, 72 h); higher = more inhibition; extreme values may be limits of the assay
[1] = test system: CAL-54 (Kidney Carcinoma)
Procedure, shortened: (§1)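 Cell lines grown in DMEM/F12 or RPMI with 10% FBS were plated in 1536-well plates and held 24 hours at 37°C, 5% CO2 before 72 hours of exposure to two-drug dose matrices, with DMSO typically at 0.2%. CellTiter-Glo 2.0 luminescence gave viability, which was converted to inhibition. Vehicle wells were set to 0 and blank wells to 1. Combination Emax is the second-highest inhibition in the matrix, and Bliss excess is the observed combination effect minus the expected EA + EB − EA·EB, where EA and EB are the single-agent effects.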

[2] = test system: CAPAN-1 (Pancreatic Carcinoma)
Procedure, shortened: as §1

[3] = test system: EN (Endometrial Carcinoma)
Procedure, shortened: as §1

[4] = test system: HDLM-2 (Hodgkin's Lymphoma)
Procedure, shortened: as §1

[5] = test system: HO-1-u-1 (Oral Cavity Carcinoma)
Procedure, shortened: as §1

[6] = test system: K5 (Thyroid Gland Carcinoma)
Procedure, shortened: as §1

[7] = test system: KARPAS-231 (B-Cell Non-Hodgkin's Lymphoma)
Procedure, shortened: as §1

[8] = test system: KYSE-410 (Esophageal Squamous Cell Carcinoma)
Procedure, shortened: as §1

[9] = test system: LB771-HNC (Head and Neck Carcinoma)
Procedure, shortened: as §1

NB14 (Neuroblastoma) = test system: NB14 (Neuroblastoma)
Procedure, shortened: as §1

NCI-H2461 (Mesothelioma) = test system: NCI-H2461 (Mesothelioma)
Procedure, shortened: as §1

NCI-H2795 (Mesothelioma) = test system: NCI-H2795 (Mesothelioma)
Procedure, shortened: as §1

[10] = test system: RPMI-6666 (Non-Cancerous)
Procedure, shortened: as §1

SH-4 (Melanoma) = test system: SH-4 (Melanoma)
Procedure, shortened: as §1

[11] = test system: SU-DHL-6 (B-Cell Non-Hodgkin's Lymphoma)
Procedure, shortened: as §1

[12] = test system: SUP-T1 (T-Lymphoblastic Leukemia)
Procedure, shortened: as §1

[13] = test system: SW1271 (Small Cell Lung Carcinoma)
Procedure, shortened: as §1

[14] = test system: UMC-11 (Other Solid Carcinomas)
Procedure, shortened: as §1

[15] = test system: MDA-MB-468 (Breast Carcinoma)
Procedure, shortened: as §1

Structure (SMILES)	combination Emax [1]	combination Emax [2]	combination Emax [3]	combination Emax [4]	combination Emax [5]	combination Emax [6]	combination Emax [7]	combination Emax [8]	combination Emax [9]	combination Emax (NB14 (Neuroblastoma))	combination Emax (NCI-H2461 (Mesothelioma))	combination Emax (NCI-H2795 (Mesothelioma))	combination Emax [10]	combination Emax (SH-4 (Melanoma))	combination Emax [11]	combination Emax [12]	combination Emax [13]	combination Emax [14]	combination Emax [15]
COc1nnc2ccc(N3CCC(c4ccc(OCCN5CCN(C)C(=O)[C@H]5C)cc4)CC3)nn12 [AZD5153] + Cn1cnc2c(F)c(Nc3ccc(Br)cc3Cl)c(C(=O)NOCCO)cc21 [Selumetinib] (first compound max 1 µM, 7x7, partner max 10 µM)	0.765	0.664	0.289	0.393	0.558	0.845	0	0.345	0.475	0.892	0.501	0.853	0.692	0.953	0.913	0.718	0.676	0.704	–
COc1nnc2ccc(N3CCC(c4ccc(OCCN5CCN(C)C(=O)[C@H]5C)cc4)CC3)nn12 [AZD5153] + CC1(C)CCC(CN2CCN(c3ccc(C(=O)NS(=O)(=O)c4ccc(NCC5CCOCC5)c([N+](=O)[O-])c4)c(Oc4cnc5[nH]ccc5c4)c3)CC2)=C(c2ccc(Cl)cc2)C1 [Venetoclax] (first compound max 1 µM, 7x7, partner max 1 µM)	0.769	0.335	0.289	0.612	0.55	0.668	1	0.266	0.481	0.761	0.517	0.465	0.764	0.607	1	0.745	0.57	0.769	–
C[C@@H](c1ccc2nccn2c1)n1nnc2ncc(-c3cnn(C)c3)nc21 [Savolitinib] + CC1(C)CCC(CN2CCN(c3ccc(C(=O)NS(=O)(=O)c4ccc(NCC5CCOCC5)c([N+](=O)[O-])c4)c(Oc4cnc5[nH]ccc5c4)c3)CC2)=C(c2ccc(Cl)cc2)C1 [Venetoclax] (first compound max 1 µM, 7x7, partner max 1 µM)	0.143	0.181	0.238	0.28	0.0993	0.0879	0.866	0.124	0.115	0.114	0.301	0.22	0.243	0.139	0.465	0.131	0.161	0.13	–
Cn1cnc2c(F)c(Nc3ccc(Br)cc3Cl)c(C(=O)NOCCO)cc21 [Selumetinib] + CCN(CCO)CCCOc1ccc2c(Nc3cc(CC(=O)Nc4cccc(F)c4)[nH]n3)ncnc2c1 [AZD2811] (first compound max 10 µM, 7x7, partner max 1 µM)	0.382	0.426	0.569	0.151	0.328	0.599	0.609	0.256	0.152	0.866	0.397	0.858	0.557	0.906	0.385	0.413	0.485	0.818	–
COc1nnc2ccc(N3CCC(c4ccc(OCCN5CCN(C)C(=O)[C@H]5C)cc4)CC3)nn12 [AZD5153] + CCN(CCO)CCCOc1ccc2c(Nc3cc(CC(=O)Nc4cccc(F)c4)[nH]n3)ncnc2c1 [AZD2811] (first compound max 1 µM, 7x7, partner max 1 µM)	0.778	0.353	0.454	0.434	0.578	0.714	0.514	0.313	0.519	0.858	0.592	0.497	0.634	0.613	0.903	0.786	0.534	0.843	–
Cc1nc(-c2cn3c(n2)-c2ccc(-c4cnn(C(C)(C)C(N)=O)c4)cc2OCC3)n(C(C)C)n1 [Taselisib] + O=C(Nc1ccc2[nH]nc(-c3ccncc3)c2c1)[C@@H]1CCN(CC(=O)N2CCN(c3ccc(-c4ncccn4)cc3)CC2)C1 [SCH772984] (first compound max 10 µM, 7x7, partner max 5 µM)	0.816	0.77	0.619	0.345	0.933	0.954	–	–	–	0.697	0.6	1	0.716	0.921	1	0.609	0.531	–	0.747
COc1nnc2ccc(N3CCC(c4ccc(OCCN5CCN(C)C(=O)[C@H]5C)cc4)CC3)nn12 [AZD5153] + C=CCn1c(=O)c2cnc(Nc3ccc(N4CCN(C)CC4)cc3)nc2n1-c1cccc(C(C)(C)O)n1 [AZD1775] (first compound max 1 µM, partner max 1 µM)	0.832	0.549	0.525	0.732	0.735	0.719	0.978	0.491	0.627	1	0.655	0.597	0.828	0.65	0.941	0.821	0.649	0.9	–
C=CCn1c(=O)c2cnc(Nc3ccc(N4CCN(C)CC4)cc3)nc2n1-c1cccc(C(C)(C)O)n1 [AZD1775] + CCc1c2c(nc3ccc(O)cc13)-c1cc3c(c(=O)n1C2)COC(=O)[C@]3(O)CC [SN-38] (first compound max 1 µM, partner max 0.3 µM)	0.843	0.799	0.699	0.778	0.869	0.594	–	–	–	0.997	0.702	0.779	0.917	0.607	1	0.84	0.62	–	0.828
Cn1cnc2c(F)c(Nc3ccc(Br)cc3Cl)c(C(=O)NOCCO)cc21 [Selumetinib] + C=CCn1c(=O)c2cnc(Nc3ccc(N4CCN(C)CC4)cc3)nc2n1-c1cccc(C(C)(C)O)n1 [AZD1775] (first compound max 10 µM, partner max 1 µM)	0.643	0.59	0.587	0.71	0.456	0.596	0.982	0.431	0.452	1	0.569	0.851	0.829	0.94	0.616	0.809	0.565	0.584	–
COc1nnc2ccc(N3CCC(c4ccc(OCCN5CCN(C)C(=O)[C@H]5C)cc4)CC3)nn12 [AZD5153] + C[C@@H]1COCCN1C2=NC(=NC(=C2)C3(CC3)[S@](=N)(=O)C)C4=C5C=CNC5=NC=C4 [AZD6738] (first compound max 1 µM, 7x7, partner max 10 µM)	0.823	0.54	0.584	0.525	0.89	0.788	0.752	0.484	0.739	0.97	0.649	0.801	0.834	0.666	0.968	0.844	0.57	0.912	–
COc1cc2ncnc(Nc3ccc(F)c(Cl)c3)c2cc1OCCCN1CCOCC1 [Gefitinib] + CC(C)n1c(=O)n(C)c2cnc3cc(F)c(-c4ccc(OCCCN5CCCCC5)nc4)cc3c21 [AZD1390] (first compound max 10 µM, 7x7, partner max 0.3 µM)	0.486	0.253	0.248	0.192	0.487	0.0692	0.24	0.362	0.0839	0.128	0.256	0.324	0.615	0.149	0.433	0.382	0.188	0.0797	–
Cn1cnc2c(F)c(Nc3ccc(Br)cc3Cl)c(C(=O)NOCCO)cc21 [Selumetinib] + CC(C)n1c(=O)n(C)c2cnc3cc(F)c(-c4ccc(OCCCN5CCCCC5)nc4)cc3c21 [AZD1390] (first compound max 10 µM, 7x7, partner max 0.3 µM)	0.346	0.376	0.261	0.138	0.188	0.51	0.225	0.163	0.136	0.241	0.337	0.846	0.368	0.854	0.265	0.0785	0.499	0.0797	–
CS(=O)(=O)CCNCc1ccc(-c2ccc3ncnc(Nc4ccc(OCc5cccc(F)c5)c(Cl)c4)c3c2)o1 [Lapatinib] + NC1(c2ccc(-c3nc4ccn5c(=O)[nH]nc5c4cc3-c3ccccc3)cc2)CCC1 [MK-2206] (first compound max 10 µM, 7x7, partner max 10 µM)	0.921	0.331	0.512	0.625	0.943	0.95	–	–	–	0.941	0.495	0.948	0.766	0.901	1	0.912	0.739	–	0.959
CS(=O)(=O)CCNCc1ccc(-c2ccc3ncnc(Nc4ccc(OCc5cccc(F)c5)c(Cl)c4)c3c2)o1 [Lapatinib] + Cn1cnc2c(F)c(Nc3ccc(Br)cc3Cl)c(C(=O)NOCCO)cc21 [Selumetinib] (first compound max 10 µM, 7x7, partner max 10 µM)	0.559	0.615	0.345	0.372	0.789	0.597	–	–	–	0.898	0.488	0.893	0.462	0.868	0.974	0.53	0.646	–	0.882
